Test results published in ChEMBL document CHEMBL1133065, “Lipopolyamines incorporating the tetraamine spermine, bound to an alkyl chain, sequester bacterial lipopolysaccharide” (Bioorg Med Chem Lett, 2000).

How the values were obtained:
Nucleic Acid = experiment: The compound was evaluated for binding affinity towards calf thymus DNA.; type: nucleic-acid assay; conditions: Bos taurus
J774.A1 [1] = experiment: Inhibition of NO production by J774.A1 cells stimulated for 18 hr with Escherichia coli at 0.5 uM, measured as nitrite using the Griess assay; effectively inhibited; type: functional, cell-based; conditions: Mus musculus
J774.A1 [2] = experiment: Inhibition of TNF-alpha production by J774.A1 cells stimulated for 18 hr with Escherichia coli at 0.9 uM, by ELISA assay; effectively inhibited; type: functional, cell-based; conditions: Mus musculus

Compound	C50 (Nucleic Acid) [µM]	inhibition (J774.A1 [1])	inhibition (J774.A1 [2])
CCCCCCCCCCCCCCCC(=O)NCCCNCCCCNCCCN	1.35	–	–
CCCCCCCC/C=C/CCCCCCCC(=O)NCCCNCCCCNCCCN	1.29	–	–
CCCCCCCCCCCCCCCC(=O)NCCCNCCCNCCCCNCCCN	0.9	effectively inhibited	effectively inhibited
CCCCCCCCCCCCCCCCCC(=O)NCCCNCCCCNCCCN	1.27	–	–
